The results in this text go back to patent US7993756B2, “Long-chain quaternary ammonium compounds as wood treatment agents” (Viance, LLC, priority 2005, dated 2011).

Assay [1] has as its system soil-bed decay of Southern Pine Mini-Stakes. Kind of assay: Accelerated Soil-bed Decay Test of Southern Pine Mini-Stakes (AWPA Standard Test Method E14). To be noted: addition of 0.8% 2HT; all three retention levels; after about 10 years exposure. An excerpt:
A decay rating of 100 means no decay, and a rating of 0 indicates failure due to decay.

Assay [2] has as its system Postia placenta. In words: Standard soil-block decay test (AWPA Standard Test Method E-10). The assay is classed as cell-based. To be noted: 2HT at 0.8% in the treating solution. The source says: The vertical axis is percent weight loss of the wood blocks (negative numbers represent weight gain), and the horizontal axis is ACQ® wood preservative retention in the wood blocks expressed on a weight preservative/weight wood basis. […] The toxic threshold of ACQ® wood preservative against Postia placenta is estimated to be 0.7-0.8% in this test (FIG. 4).

For “dimethyl di(hydrogenated tallow) ammonium compound [2HT]”, the “effect on performance of ACQ wood preservative in soil-bed decay test” value in assay [1] was “improves the performance”. Moreover, the “effect on toxicity of ACQ wood preservative toward Postia placenta” value in assay [2] is recorded as “almost double”.
